Assay [1] concerns approximately 60 human tumour cell lines. The assay can be described thus: NCI 60 cell screen, SRB assay. It is filed as cell-based. The following applies: Homo sapiens, 48 hour continuous exposure. As to the method: The National Cancer Institute (NCI), Bethesda, Md., USA has available an in vitro cytotoxicity screen which consists of approximately 60 human tumour cell lines against which compounds are tested at a minimum of five concentrations each differing 10-fold. A 48 hour continuous exposure protocol is used, where cell viability or growth is estimated with an SRB protein assay.
The test compounds were evaluated against approximately 60 human tumour cell lines. The NCI screening procedures were described in detail by Monks and co-workers (Monks, A et al., Journal of the National Cancer Institute, 1991, 83, 757). Briefly, cell suspensions were diluted according to the particular cell type and the expected target cell density (5000-40,000 cells per well based on cell growth characteristics), and added by pipette (100 μL) into 96-well microtitre plates. The cells were allowed a preincubation period of 24 hours at 37° C. for stabilisation. Dilutions at twice the intended test concentration were added at time zero in 100 μL aliquots to the wells. The test compounds were evaluated at five 10-fold dilutions (10^−4, 10^−5, 10^−6, 10^−7 and 10^−[…]). The test compounds were incubated for 48 hours in 5% CO2 atmosphere and 100% humidity. The cells were then assayed using the sulphorhodamine B assay. A plate reader was used to read the optical densities and a microcomputer processed the readings into GI50 values (in Moles), which is the dosage required to limit cell growth to 50%.
A general note: Sulforhodamine B stains cellular protein and so reports cell mass.

Assay [2] deals with K562 human chronic myeloid leukaemia cells. The assay can be described thus: In vitro cytotoxicity, K562 cells, MTT assay. Type of assay: cell-based. The settings on record: Homo sapiens. As to the method: K562 human chronic myeloid leukaemia cells were maintained in RPM1 1640 medium supplemented with 10% fetal calf serum and 2 mM glutamine at 37° C. in a humidified atmosphere containing 5% CO2 and were incubated with a specified dose of drug for 1 hour or 96 hours at 37° C. in the dark. The incubation was terminated by centrifugation (5 min, 300 g) and the cells were washed once with drug-free medium. Following the appropriate drug treatment, the cells were transferred to 96-well microtiter plates (10^4 cells per well, 8 wells per sample). Plates were then kept in the dark at 37° C. in a humidified atmosphere containing 5% CO2. The assay is based on the ability of viable cells to reduce a yellow soluble tetrazolium salt, 3-(4,5-dimethylthiazol-2-yl)-2,5-diphenyl-2H-tetrazolium bromide (MTT, Aldrich-Sigma), to an insoluble purple formazan precipitate. Following incubation of the plates for 4 days (to allow control cells to increase in number by approximately 10 fold), 20 μL of MTT solution (5 mg/mL in phosphate-buffered saline) was added to each well and the plates further incubated for 5 hours. The plates were then centrifuged for 5 minutes at 300 g and the bulk of the medium pipetted from the cell pellet leaving 10-20 μL per well. DMSO (200 μL) was added to each well and the samples agitated to ensure complete mixing. The optical density was then read at a wavelength of 550 nm on a Titertek Multiscan ELISA plate reader, and a dose-response curve was constructed. For each curve, an IC50 value was read as the dose required to reduce the final optical density to 50% of the control value.
A general note: Formazan colour is commonly taken as a measure of viable cells.

Assay [3] concerns linear pBR322 DNA. The assay can be described thus: DNA cross-linking, electrophoretic assay (XL50). It is filed as biochemical. The settings on record: concentration giving 50% cross-linked plasmid DNA; 2 hours, 37° C., pH 7.2. As to the method: The extent of DNA cross-linking induced by each PBD dimer was determined using the electrophoretic assay method of Hartley, et al. (Hartley, J. A., Berardini, M. D., and Souhami, R. L. (1991) Anal. Biochem. 193, 131-134) based on the principle that, following complete denaturation of linear pBR322 DNA (˜4,300 bp) to the single-stranded (SS) form, an interstrand cross-link results in renaturation to double-stranded (DS) in a neutral gel.
Closed-circular DNA was linearized with HindIII, then dephosphorylated and finally 5′-singly end-labelled using [γ^32P]-ATP and polynucleotide kinase. Reactions containing 30-40 ng of DNA and the test compound were carried out in aqueous TEOA (25 mM triethanolamine, 1 mM EDTA, pH 7.2) buffer at 37° C. in a final volume of 50 μl for 2 hours. Reactions were terminated by addition of an equal volume of stop solution (0.6 M NaOAc, 20 mM EDTA, 100 μg/ml tRNA) followed by precipitation with ethanol. Following centrifugation, the supernatant was discarded and the pellet dried by lyophilization. Samples were re-suspended in 10 μl of strand separation buffer (30% DMSO, 1 mM EDTA, 0.04% bromophenol blue and 0.04% xylene cylanol) and denatured by heating to 90° C. for 2.5 min, followed by immersion in an ice/water bath. Control non-denatured samples were re-suspended in 10 μl of non-denaturing buffer solution (0.6% sucrose, 0.04% bromophenol blue in aqueous TAE buffer [40 mM Tris, 20 mM acetic acid, 2 mM EDTA, pH 8.1]) and loaded directly onto the gel for comparison.
Electrophoresis was carried out for 14-16 h at 40 V using a 0.8% submerged agarose gel (20×25×0.5 cm) in TAE buffer. Gels were dried under vacuum for 2 hour at 80° C. onto one layer each of Whatman 3MM and DE8I filter papers using a BioRad 583 gel dryer. Autoradiographs were obtained after exposure of Hyperfilm-MP film (Amersham plc, U.K.) to the dried gel for either 4 hour with a screen (or over night, without a screen, to obtain a sharper image). Film bands were quantitated using a BioRad GS-670 imaging laser densitometer. Percentage cross-linking was calculated by measuring the total DNA in each lane (summed density for the double-stranded [DS] and single-stranded [SS] bands) relative to the amount of cross-linked DNA (density of DS band alone). A dose-response curve was derived by plotting drug concentration against the determined percentage level of cross-linked DNA which was then analysed to determine the concentration of test compound that results in 50% cross-linked plasmid DNA (XL50).

Setting [4] is: 1 hr exposure, read-out: IC50 1 hr exposure.
Setting [5] is: 96 hr exposure, sub-table of 16e-j, read-out: IC50 96 hr exposure.

pEC50, pIC50: −log10 of the molar value. Like-named read-outs stand apart in the source and are kept apart here. Where only a bound is given, the exact number is not on record here.

For orientation: GI50 means the concentration at which growth is held to half of that of the control. A higher GI50 goes with lower sensitivity of the cells. In general, pIC50 refers to the IC50 on a negative log10 scale, so that one unit is a factor of ten. As usually defined, the pEC50 is −log10 of the EC50, conventionally taken in molar units. Low readings indicate a large EC50, high ones a small EC50. As to `COc1ccc2c(c1)N=C[C@H]1C(OCCCCCCCCCOC3CCN4C(=O)c5ccc(OC)cc5N=C[C@@H]34)CCN1C2=O` (stereo partly drawn) [Compound 9g, 1,1′-[(Nonane-1,9-diyl)dioxy]bis[(11aS)-8-methoxy-1,2,3,11a-tetrahydro-5H-pyrrolo[2,1-c][1,4]benzodiazepine-5-one]], in assay [1], the GI50 came to 570 nM. Further, the pIC50 in assay [2] (setting [4]) was 4.76. Besides, in assay [3], the pEC50 was 6.01.
In assay [1] (sub-table of 29a-c), `C=C1CN2C(=O)c3cc(OC)ccc3N=C[C@H]2C1OCCCCCCCCCOC1C(=C)CN2C(=O)c3cc(OC)ccc3N=C[C@@H]12` (stereo partly drawn) [Compound 29b, 1,1′-[(Nonane-1,9-diyl)dioxy]bis[(11aS)-7-methoxy-2-methylene-1,2,3,11a-tetrahydro-5H-pyrrolo[2,1-c][1,4]benzodiazepine-5-one]] had a GI50 of 20.9 nM. In addition, in assay [2] (96 hr exposure, sub-table of 29a-c, read-out: IC50 96 hr exposure), the pIC50 is 7.47. The molecule further had a pEC50 in assay [3] of 5.82.
For the molecule `COc1ccc2c(c1)N=C[C@H]1C(OCCCCCCCCCCCOC3CCN4C(=O)c5ccc(OC)cc5N=C[C@@H]34)CCN1C2=O` (stereo partly drawn) [Compound 9i, 1,1′-[(Undecane-1,11-diyl)dioxy]bis[(11aS)-8-methoxy-1,2,3,11a-tetrahydro-5H-pyrrolo[2,1-c][1,4]benzodiazepine-5-one]], the GI50 in assay [1] was 570 nM. The negative-log IC50 (pIC50) in assay [2] (setting [4]) was 5.05. Moreover, the pEC50 in assay [3] is 6.72.
With `COc1ccc2c(c1)N=C[C@H]1C(OCCCOC3CCN4C(=O)c5ccc(OC)cc5N=C[C@@H]34)CCN1C2=O` (stereo partly drawn) [Compound 9a, 1,1′-[(Propane-1,3-diyl)dioxy]bis[(11aS)-8-methoxy-1,2,3,11a-tetrahydro-5H-pyrrolo[2,1-c][1,4]benzodiazepine-5-one]], the GI50 in assay [1] was 8910 nM. Besides, the pIC50 in assay [2] (setting [4]) was below 4.52. The molecule further showed a pEC50 in assay [3] below 4.00.
`COc1ccc2c(c1)C(=O)N1CCC(OCCCCCCCCCCOC3CCN4C(=O)c5cc(OC)ccc5N=C[C@@H]34)[C@@H]1C=N2` (stereo partly drawn) [Compound 16h, 1,1′-[(Decane-1,10-diyl)dioxy]bis[(11aS)-7-methoxy-1,2,3,11a-tetrahydro-5H-pyrrolo[2,1-c][1,4]benzodiazepine-5-one]]: the GI50 in assay [1] amounted to 54 nM. Also, in assay [2] (setting [5]), the pIC50 was 6.45. Besides, the pEC50 in assay [3] is 5.30.
The corresponding values for `COc1ccc2c(c1)C(=O)N1CCC(OCCCCCCCCOC3CCN4C(=O)c5cc(OC)ccc5N=C[C@@H]34)[C@@H]1C=N2` (stereo partly drawn) [Compound 16f, 1,1′-[(Octane-1,8-diyl)dioxy]bis[(11aS)-7-methoxy-1,2,3,11a-tetrahydro-5H-pyrrolo[2,1-c][1,4]benzodiazepine-5-one]] are 19 nM, 8.35 and 5.85.
Turning to `COc1ccc2c(c1)C(=O)N1CCC(OCCCCCCOC3CCN4C(=O)c5cc(OC)ccc5N=C[C@@H]34)[C@@H]1C=N2` (stereo partly drawn) [Compound 16d, 1,1′-[(Hexane-1,6-diyl)dioxy]bis[(11aS)-7-methoxy-1,2,3,11a-tetrahydro-5H-pyrrolo[2,1-c][1,4]benzodiazepine-5-one]], the GI50 in assay [1] came out at 310 nM. Further, the pIC50 in assay [2] (setting [4]) is 6.00. The pEC50 in assay [3] was 6.12.
As for `COc1ccc2c(c1)C(=O)N1CCC(OCCCCCOC3CCN4C(=O)c5cc(OC)ccc5N=C[C@@H]34)[C@@H]1C=N2` (stereo partly drawn) [Compound 16c, 1,1′-[(Pentane-1,5-diyl)dioxy]bis[(11aS)-7-methoxy-1,2,3,11a-tetrahydro-5H-pyrrolo[2,1-c][1,4]benzodiazepine-5-one]], in assay [1], the GI50 amounted to 15 nM. In addition, in assay [2] (setting [4]), the pIC50 was 6.30. The molecule also had a negative-log EC50 (pEC50) in assay [3] of 7.15.
